Columns and labels:
[1] = system: TRZAWR (Wheat, Winter, cv Riband); experiment: Postemergence herbicidal evaluation; type: in vivo, Triticum aestivum; settings: postemergence
Procedure, shortened: (§1)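 Two-week seedlings sprayed postemergence at 40 psi; formulation: 1:1 acetone/water, 0.5% TWEEN 20; application ≈0.0156–0.500 kg/ha. Greenhouse grow-out, then 0–9 visual scoring at 4–5 weeks.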

[2] = system: GALAP (Galium); experiment: Postemergence herbicidal evaluation; type: in vivo, Galium aparine; settings: postemergence
Procedure, shortened: as §1

[3] = system: CHEAL (Lambsquarters, Common); experiment: Preemergence herbicidal evaluation; type: in vivo, Chenopodium album; settings: rated 4-5 weeks after treatment
Procedure, shortened: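 Herbicidal effect scored visually, 0-9, at 4 to 5 weeks against a control; compound applied preemergence by aqueous acetone spray to seeded soil at about 0.0156 to 0.500 kg/ha.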

[4] = system: AMBEL (Ragweed, Common); experiment: Postemergence herbicidal evaluation; type: in vivo, Ambrosia artemisifolia; settings: postemergence
Procedure, shortened: as §1

Structure (SMILES) | Herbicidal rating TRZAWR ([1]; rate 0.0156 kg/ha) | Herbicidal rating TRZAWR ([1]; rate 0.0313 kg/ha) | Herbicidal rating TRZAWR ([1]; rate 0.0625 kg/ha) | Herbicidal rating GALAP ([2]; rate 0.0156 kg/ha) | Herbicidal rating GALAP ([2]; rate 0.0313 kg/ha) | Herbicidal rating GALAP ([2]; rate 0.0625 kg/ha) | Preemergence herbicidal rating CHEAL ([3]; 0.0156 kg/ha) | Preemergence herbicidal rating CHEAL ([3]; 0.0313 kg/ha) | Preemergence herbicidal rating CHEAL ([3]; 0.0625 kg/ha) | Preemergence herbicidal rating CHEAL ([3]; 0.1250 kg/ha) | Preemergence herbicidal rating CHEAL ([3]; 0.2500 kg/ha) | Herbicidal rating AMBEL ([4]; rate 0.0156 kg/ha) | Herbicidal rating AMBEL ([4]; rate 0.0313 kg/ha) | Herbicidal rating AMBEL ([4]; rate 0.0625 kg/ha) | Herbicidal rating TRZAWR ([1]; rate 0.1250 kg/ha) | Herbicidal rating GALAP ([2]; rate 0.1250 kg/ha) | Preemergence herbicidal rating CHEAL ([3]; 0.5000 kg/ha) | Herbicidal rating AMBEL ([4]; rate 0.1250 kg/ha)
CCN1C(=O)CSC1=Nc1cc(-n2c(=O)cc(C(F)(F)F)n(C)c2=O)c(F)cc1Cl [Compound 159, 3-{4-Chloro-5-[(3-ethyl-4-oxo-2-thiazolidinyl-idene)amino]-2-fluorophenyl}-1-methyl-6-(trifluoromethyl)-2,4(1H,3H)-pyrimidinedione] | 2.5 | 3.5 | 3.5 | 0.0 | 1.0 | 4.0 | 7.0 | 9.0 | 8.0 | 9.0 | 9.0 | 4.0 | 7.0 | 7.0 | – | – | – | –
CCOC(=O)CN1C(=O)C(OC)SC1=Nc1cc(-n2c(=O)cc(C(F)(F)F)n(C)c2=O)c(F)cc1Cl (centres unmarked) [Compound 160, Ethyl 2-{{2-chloro-5-[3,6-dihydro-3-methyl-2,6-dioxo-4-(trifluoromethyl)-1(2H)-pyrimidinyl]-4-fluorophenyl}imino}-5-methoxy-4-oxo-3-thiazolidineacetate] | 3.0 | 4.0 | 5.0 | 0.0 | 0.0 | 2.0 | 2.0 | 9.0 | 9.0 | 9.0 | 9.0 | 7.0 | 7.0 | 9.0 | 6.0 | 4.0 | 9.0 | 9.0
CC(C)N1C(=O)CSC1=Nc1cc(-n2c(=O)cc(C(F)(F)F)n(C)c2=O)c(F)cc1Cl [Compound 164, 3-{4-Chloro-2-fluoro-5-[(3-isopropyl-4-oxo-2-thiazolidinylidene)amino]phenyl}-1-methyl-6-(trifluoromethyl)-2,4(1H,3H)-pyrimidinedione] | 4.0 | 4.5 | 5.5 | 3.0 | 4.0 | 7.0 | 9.0 | 9.0 | 9.0 | 9.0 | 9.0 | 7.0 | 9.0 | 9.0 | 5.5 | 6.0 | 9.0 | 9.0
Cn1c(C(F)(F)F)cc(=O)n(-c2cc(N=C3SCC(=O)N3C3CCCC3)c(Cl)cc2F)c1=O [Compound 166, 3-{4-Chloro-5-[(3-cyclopentyl-4-oxo-2-thiazolidinylidene)amino]-2-fluorophenyl}-1-methyl-6-(trifluoromethyl)-2,4(1H,3H)-pyrimidinedione] | 1.5 | 1.5 | 2.5 | 0.0 | 0.0 | 0.0 | 1.0 | 0.0 | 3.0 | 9.0 | 9.0 | 0.0 | 3.0 | 6.0 | 3.0 | 2.0 | 9.0 | 7.0

From patent US20020137929A1, “1 - (3-heterocyclylphenyl) isothiourea, -isourea, -guanidine and -amidine herbicidal agents” (Intellectual Property Department, BASF Aktiengesellschaft, priority 1998, published 2002)
